Experimental findings from the supplement of paper PMC7244745 are described below.

Structures can show the parent of a compound that is named as a salt. ± gives the uncertainty stated by the source.

Assay [1] deals with Klebsiella pneumoniae ATCC 13882. Briefly: rate of pH (A557-A630) increase, Gompertz fit (10^-4 s-1); higher = faster ureolysis; extreme values may be limits of the assay. Here is the method: (§1)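 Klebsiella pneumoniae ATCC 13882 (start OD600 0.05) grown in M9U medium with 40 mM urea and phenol red plus inhibitor, in triplicate in 96-well plates. A557 and OD630 were read every 15 min for 24 h. Ureolysis was followed as the pH-related A557-A630: onset time, Gompertz-fit rate and final value. Growth was followed as OD630.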

The test system is the same in assay [2]. In words: onset of ureolytic pH increase; higher = more delayed ureolysis (inhibition). Here is the method:
as §1

The test system is the same in assay [3]. In words: final OD630 (growth) after 24 h; higher = more bacterial growth; extreme values may be limits of the assay. Here is the method: as §1
The test system is the same in assay [4]. Briefly: final pH-related absorbance (A557-A630) after 24 h (absorbance units); higher = more ureolysis; extreme values may be limits of the assay. Here is the method: as §1

For the compound `S=C=S` [Carbon disulfide], the “rate of pH” value in assay [1] (0.0285 mM) came to 1.547 ± 0.011; in assay [1] (0.285 mM), 1.537 ± 0.0055; in assay [1] (2.85 mM) it was 1.561 ± 0.0093. Also, the “onset of ureolytic pH increase” value in assay [2] (0.0285 mM) came out at 615.5 ± 0.69 min; in assay [2] (0.285 mM) it was 611.8 ± 2.6 min; in assay [2] (2.85 mM), 614.4 ± 4.2 min. Moreover, the “final OD630” value in assay [3] (0.0285 mM) amounted to 0.416 ± 0.0039; in assay [3] (0.285 mM), 0.428 ± 0.0051; in assay [3] (2.85 mM) it was 0.419 ± 0.0062. Further, the “final pH-related absorbance” value was 0.169 ± 0.0022 in assay [4] (0.0285 mM), 0.175 ± 0.0006 in assay [4] (0.285 mM) and 0.175 ± 0.0058 in assay [4] (2.85 mM).

`CN(CC(=O)O)C(=N)N` [Creatine monohydrate]: the “rate of pH” value was 1.73 ± 0.023 in assay [1] (0.0026 mM), 1.73 ± 0.059 in assay [1] (0.026 mM) and 1.78 ± 0.032 in assay [1] (0.26 mM). In addition, the results for the “onset of ureolytic pH increase” value in assay [2] (0.0026 mM), in assay [2] (0.026 mM) and in assay [2] (0.26 mM) were 572.2 ± 2.2 min, 575 ± 8.8 min and 565.1 ± 4.7 min, respectively. Besides, the “final OD630” value came to 0.503 ± 0.012 in assay [3] (0.0026 mM), 0.496 ± 0.0032 in assay [3] (0.026 mM) and 0.497 ± 0.0049 in assay [3] (0.26 mM). For the same compound, the “final pH-related absorbance” value in assay [4] (0.0026 mM) turned out to be 0.217 ± 0.0008; in assay [4] (0.026 mM) it was 0.22 ± 0.0025; in assay [4] (0.26 mM) it was 0.22 ± 0.0028.

On to `CN1CC(=O)NC1=N` [Creatinine], for which the “rate of pH” value in assay [1] (0.1 mM) was 2.186 ± 0.011; in assay [1] (1 mM) it was 2.17 ± 0.023; in assay [1] (10 mM), 2.19 ± 0.038. In addition, the “onset of ureolytic pH increase” value in assay [2] (0.1 mM) amounted to 575.3 ± 4.2 min; in assay [2] (1 mM) it was 580.5 ± 1.7 min; in assay [2] (10 mM) it was 575 ± 8.4 min. The “final OD630” value in assay [3] (0.1 mM) is 0.505 ± 0.0042; in assay [3] (1 mM) it was 0.495 ± 0.013; in assay [3] (10 mM), 0.517 ± 0.0028. The figures for the “final pH-related absorbance” value in assay [4] (0.1 mM), in assay [4] (1 mM) and in assay [4] (10 mM) were 0.146 ± 0.0004, 0.158 ± 0.0061 and 0.157 ± 0.005, respectively.

As for `NCCS` [Cysteamine hydrochloride], the “rate of pH” value in assay [1] (0.1 mM) stood at 1.44 ± 0.07; in assay [1] (1 mM), 0.893 ± 0.012; in assay [1] (10 mM), 0.736 ± 0.0043. The “onset of ureolytic pH increase” value in assay [2] (0.1 mM) was found to be 510 ± 6.2 min; in assay [2] (1 mM), 607.5 ± 1.2 min; in assay [2] (10 mM), 911.1 ± 1.1 min. The “final OD630” value in assay [3] (0.1 mM) was determined as 0.5 ± 0.0053; in assay [3] (1 mM) it was 0.487 ± 0.0016; in assay [3] (10 mM), 0.447 ± 0.0027. Further, the figures for the “final pH-related absorbance” value in assay [4] (0.1 mM), in assay [4] (1 mM) and in assay [4] (10 mM) were 0.256 ± 0.0053, 0.246 ± 0.0058 and 0.097 ± 0.0002, respectively.

Consider `O=C(O)CN(CCN(CC(=O)O)CC(=O)O)CCN(CC(=O)O)CC(=O)O` [Diethylenetriaminepentaacetic acid], for which the “rate of pH” value amounted to 2.08 ± 0.049 in assay [1] (0.004 mM), 0 in assay [1] (0.036 mM) and 0 in assay [1] (0.364 mM). In addition, the “onset of ureolytic pH increase” value in assay [2] (0.004 mM) was 568 ± 11 min; in assay [2] (0.036 mM) it was above 900 min; in assay [2] (0.364 mM) it was above 900 min. Besides, the results for the “final OD630” value in assay [3] (0.004 mM), in assay [3] (0.036 mM) and in assay [3] (0.364 mM) were 0.439 ± 0.001, 0.311 ± 0.003 and 0.21 ± 0.005, respectively. The entries for the “final pH-related absorbance” value in assay [4] (0.004 mM), in assay [4] (0.036 mM) and in assay [4] (0.364 mM) were 0.196 ± 0.016, 0 and 0, respectively.

For the compound `CC(=NO)C(C)=NO` [Dimethylglyoxime], the “rate of pH” value was determined as 2.093 ± 0.018 in assay [1] (0.03 mM), 1.96 ± 0.3 in assay [1] (0.3 mM) and 0.0904 ± 0.0046 in assay [1] (3.01 mM). The “onset of ureolytic pH increase” value in assay [2] (0.03 mM) came to 573.9 ± 0.72 min; in assay [2] (0.3 mM) it was 771 ± 36 min; in assay [2] (3.01 mM), 0 min. In addition, the “final OD630” value is 0.443 ± 0.007 in assay [3] (0.03 mM), 0.377 ± 0.017 in assay [3] (0.3 mM) and 0 in assay [3] (3.01 mM). In addition, the figures for the “final pH-related absorbance” value in assay [4] (0.03 mM), in assay [4] (0.3 mM) and in assay [4] (3.01 mM) were 0.183 ± 0.0026, 0.142 ± 0.032 and 0.466 ± 0.023, respectively.

Turning to `C=C(CC)C(=O)c1ccc(OCC(=O)O)c(Cl)c1Cl` [Ethacrynic acid], the figures for the “rate of pH” value in assay [1] (0.1 mM), in assay [1] (1 mM) and in assay [1] (10 mM) were 1.57 ± 0.073, 1.49 ± 0.037 and 0.033 ± 0.0006, respectively. The “onset of ureolytic pH increase” value is 697.4 ± 3.6 min in assay [2] (0.1 mM), 754 ± 100 min in assay [2] (1 mM) and 0 min in assay [2] (10 mM). In addition, the figures for the “final OD630” value in assay [3] (0.1 mM), in assay [3] (1 mM) and in assay [3] (10 mM) were 0.437 ± 0.0002, 0.44 ± 0.0048 and 0, respectively. The “final pH-related absorbance” value in assay [4] (0.1 mM) was 0.139 ± 0.0023; in assay [4] (1 mM) it was 0.128 ± 0.018; in assay [4] (10 mM) it was 0.294 ± 0.0059.

Take `CC(O)(P(=O)(O)O)P(=O)(O)O` [Etidronic acid monohydrate]: the “rate of pH” value came out at 1.63 ± 0.035 in assay [1] (0.1 mM), 1.597 ± 0.013 in assay [1] (1 mM) and 0 in assay [1] (10 mM). In addition, the “onset of ureolytic pH increase” value in assay [2] (0.1 mM) is 673.9 ± 2.3 min; in assay [2] (1 mM), 672.1 ± 2.5 min; in assay [2] (10 mM), above 900 min. Besides, the “final OD630” value is 0.432 ± 0.0054 in assay [3] (0.1 mM), 0.443 ± 0.0026 in assay [3] (1 mM) and 0 in assay [3] (10 mM). In addition, the “final pH-related absorbance” value in assay [4] (0.1 mM) amounted to 0.323 ± 0.0087; in assay [4] (1 mM), 0.28 ± 0.005; in assay [4] (10 mM), 0.
